Experimental data as given in article PMC8440459 (Neurotoxicology, 2021).
“Also recorded” adds a separate entry of the source.

Columns and labels:
[1] = target: T1, equine liver GST (Equus caballus, UniProt A0A9L0RPC4); experiment: Protection of GST activity from DOPAL, DA or DOPAC; assay type: biochemical; conditions: 1mM protectant, 100μM DA
[2] = target: bovine serum albumin (BSA) (Bos taurus, UniProt P02769); experiment: Nitro blue tetrazolium staining of BSA modified by DOPAL; conditions: 0.5mg/mL BSA, 4 hours at 37°C, L-cysteine effect at 1mM
[3] = target: T1, equine liver GST; experiment: Nitro blue tetrazolium staining of equine liver GST; conditions: 1mM protectant
[4] = target: GST isolated from N27 dopaminergic cells (Rattus norvegicus, UniProt P04906); experiment: CDNB assay of GST isolated from N27 cells; assay type: biochemical
[5] = target: T1, equine liver GST; experiment: Time dependency of equine liver GST inhibition; assay type: biochemical; conditions: for GST activity after 24-hour incubation: 100μM inhibitor, compared with 4 hours; for Time dependency of inhibition of GST activity: aliquots after 1, 2 and 4 hours of incubation
[6] = target: T1, equine liver GST; experiment: Reversibility of equine liver GST inhibition; assay type: biochemical; conditions: for Reversibility of inhibition of GST activity: 100μM inhibitor, with or without size exclusion column; for GST activity after application to Bio-Spin 6 Tris Columns / Inhibition of GST after incubation with known reversible inhibitor: 500μM, data not shown; for GST activity after application to Bio-Spin 6 Tris Columns: after column; for Inhibition of GST after incubation with known reversible inhibitor: before column
[7] = target: T1, equine liver GST; assay type: biochemical; conditions: 4 hours at 37°C
[8] = system: dopaminergic cells; conditions: ref Schamp and Doorn, 2017; cited from earlier work

Sequence of GST isolated from N27 dopaminergic cells (P04906 whole entry): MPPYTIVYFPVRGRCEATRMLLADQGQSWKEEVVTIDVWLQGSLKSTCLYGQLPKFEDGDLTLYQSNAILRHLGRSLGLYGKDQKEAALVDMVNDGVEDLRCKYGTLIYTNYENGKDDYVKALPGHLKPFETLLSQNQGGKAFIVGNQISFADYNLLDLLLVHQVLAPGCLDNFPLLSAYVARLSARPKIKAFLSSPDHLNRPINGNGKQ
Sequence of bovine serum albumin (BSA) (P02769 25-607): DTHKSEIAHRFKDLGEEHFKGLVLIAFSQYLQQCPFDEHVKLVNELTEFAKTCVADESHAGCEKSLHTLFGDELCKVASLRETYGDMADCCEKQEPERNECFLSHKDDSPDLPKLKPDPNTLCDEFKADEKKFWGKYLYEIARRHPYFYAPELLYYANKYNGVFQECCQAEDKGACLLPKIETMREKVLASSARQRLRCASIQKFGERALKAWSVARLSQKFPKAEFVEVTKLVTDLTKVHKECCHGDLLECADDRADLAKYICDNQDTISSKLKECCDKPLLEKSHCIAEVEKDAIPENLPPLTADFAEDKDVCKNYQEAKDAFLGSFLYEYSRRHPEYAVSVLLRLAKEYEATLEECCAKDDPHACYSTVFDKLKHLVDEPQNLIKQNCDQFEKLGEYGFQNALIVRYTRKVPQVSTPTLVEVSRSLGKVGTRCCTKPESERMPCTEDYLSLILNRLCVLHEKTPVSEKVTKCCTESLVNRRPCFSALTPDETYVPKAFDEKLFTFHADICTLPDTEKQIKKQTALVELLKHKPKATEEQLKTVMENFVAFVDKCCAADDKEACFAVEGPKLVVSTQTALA

In the case of `NCCC(=O)N[C@@H](Cc1cnc[nH]1)C(=O)O` [Carnosine, carnosine], the “Protection of GST activity against inhibition by DA” value [1] is reported as “significant protection; also recorded: partial activity retention”, the “Reduction of NBT staining of BSA modified by 200μM DOPAL” value [2] is reported as “did not significantly reduce protein modification” and the “Protection against modification of equine liver GST by 100 μM DOPAL (NBT stain)” value [3] is reported as “moderately protective”.
For `NCCc1ccc(O)c(O)c1` [DA, dopamine], the IC50 [4] was 82.3 µM, the “GST activity after 24-hour incubation” value [5] was “almost completely nulls enzyme activity” and the “Time dependency of inhibition of GST activity” value [5] was “time dependent”. The “Reversibility of inhibition of GST activity” value [6] was “irreversible”.
In the case of `O=C(O)Cc1ccc(O)c(O)c1` [DOPAC, 3,4-dihydroxyphenylacetic acid], the IC50 [4] is reported as 260 µM, the “Time dependency of inhibition of GST activity” value [5] is reported as “time dependent” and the “Reversibility of inhibition of GST activity” value [6] is reported as “irreversible”.
In the case of `O=CCc1ccc(O)c(O)c1` [DOPAL, 3,4-dihydroxyphenylacetaldehyde], the IC50 [4] is given as 31.5 µM, the “Concentration giving significant inhibition of commercially available GST” value [7] is given as 5 µM and the “Concentration toxic to dopaminergic cells” value [8] is given as 7 µM. The “GST activity after 24-hour incubation” value [5] was “almost completely nulls enzyme activity”, the “Time dependency of inhibition of GST activity” value [5] was “time dependent” and the “Reversibility of inhibition of GST activity” value [6] was “irreversible”.
In the case of `N[C@@H](CS)C(=O)O` [L-cysteine], the “Reduction of NBT staining of BSA modified by 200μM DOPAL” value [2] is reported as “significantly reduced NBT staining”.
For `CCCCCCSC[C@H](NC(=O)CC[C@H](N)C(=O)O)C(=O)NCC(=O)O` [S-hexylglutathione], the “GST activity after application to Bio-Spin 6 Tris Columns” value [6] was “regained the full value of its original activity” and the “Inhibition of GST after incubation with known reversible inhibitor” value [6] was “significant inhibition”.
For `O=C(O)/C=C/c1ccc(O)c(O)c1` [caffeic acid], the “GST activity after application to Bio-Spin 6 Tris Columns” value [6] was “regained the full value of its original activity” and the “Inhibition of GST after incubation with known reversible inhibitor” value [6] was “significant inhibition”.
